Key:
[1] = Dantrolene treatment of the patient of Example 2 (post-operative bilateral ischemic optic neuropathy), visual acuity and visual fields; format: in vivo, human; details: Example 2 patient
Method: Their past medical history is significant for an episode of hyperglycemia approximately 45 years previously. They have been a non-smoker for the last 20 years, and prior to that they were a heavy smoker.
The operation lasts for approximately 10 hours. They are under general anesthesia for the duration of the operation. The estimated blood loss is 2200 mL during the operation, of which 1200 mL is replaced via a cell saver, and an additional 2 units of blood is given along with crystalloids. Their blood pressure drops once during the operation to 89 mm Hg. Before the surgery they are able to read with glasses. […] Strong venous pulsations are seen at the optic disc of the left eye. A diagnosis of bilateral ischemic optic neuropathy is made.
(§1) He is placed on intravenous dantrolene, 2 mg/kg body weight q 2 hourly×3 followed q 8 hourly. In addition, […] is placed on solumedrol, 250 mg q 6 hourly. […] visual acuity fields are recorded on a daily basis. On day 3 dantrolene treatment is changed from intravenous to oral 500 mg po tid. On day 4 color vision is restored and on day 5 all treatment is stopped.

[2] = Serum level of dantrolene in the patient of Example 2; format: in vivo, human; details: Example 2 patient
Method: as §1
The serum level of dantrolene is 14×10^−6 gm/mL on day 4, and 15×10^−6 gm/mL on day 2.

[3] = Dantrolene treatment of the patient of Example 1 (post-operative bilateral ischemic optic neuropathy), visual acuity and visual fields; format: in vivo, human; details: Example 1 patient
Method: A patient undergoes back surgery lasting 8 hours and, upon awakening after 16 hours, complains of not being able to see from their left eye. The surgery had lasted 8 hours, and 1 unit of blood had been lost. During surgery, their systolic blood pressure had dropped to 80 mm Hg. […] They are a contact lens wearer. previously having a corrected visual acuity of 20/20 bilaterally.
There is a relative afferent pupillary defect on the left. They have a sizeable loss of their right visual field, which is illustrated in FIGS. 2A and 2B. […] Both pupils are reactive, varying in diameter from 3.0 to 3.5 mm.
Their extra-ocular muscle movements, intraocular pressures, and anterior segment exam, are within normal limits. […] The right optic disc is of normal color. […] It is pulsatile, and each time a pulse occurs, it jumps away from the optic disc. This can be clearly seen with a 90 diopter lens and a portable Kowa slit lamp, or with a 20 diopter lens and a Keeler indirect opthalmoscope. The retina appears normal in both eyes. […] A clinical diagnosis of posterior ischemic optic neuropathy with resultant field defect and pending loss of vision in the right eye is also made. MRI of the optic nerves confirms these diagnoses. Bilateral swelling of the optic nerves is seen behind the optic discs. The swelling is more marked in the left optic nerve than in the right. MRI confirms that they have a swollen optic left nerve. A diagnosis of bilateral ischemic optic neuropathy is made: the blood supply to the left eye has been occluded, and the same process is occurring in the right eye. Just prior to discovering their loss of sight, their serum calcium is low, and the nurse administers intravenous calcium.
To prevent compression of the blood supply in the right eye, the patient is given high dosed pulsed steroids. However, excitotoxic damage of the retina from reperfusion injury is almost certain in the absence of the treatment of the present invention.
The patient is administered 2 gm solumedrol, and then 1 gm every 6 hours. Dantrolene is administered at 2 mg/kg every 2 hours for three treatments, and then 1 mg/kg every 8 hours.

excitotoxic damage = details: stated as known; cited from earlier work

serum level of dantrolene ([2]; day 2 (intravenous dantrolene)): 15×10^−6 gm/mL
serum level of dantrolene ([2]; day 4 (oral 500 mg po tid from day 3)): 14×10^−6 gm/mL
Structure (SMILES): O=C1CN(/N=C/c2ccc(-c3ccc([N+](=O)[O-])cc3)o2)C(O)=N1 [Dantrolene]
visual acuity with glasses ([1]; 16 hours postoperatively, intravenous dantrolene 2 mg/kg q 2 hourly x3 then q 8 hourly, with solumedrol, baseline no light perception in either eye): counting fingers OU in the superior visual fields
color vision ([1]; day 4): restored
vision of the left eye ([3]; 24 hours after initiation of treatment, baseline no perception of light): light perception
corrected visual acuity in the right eye ([3]; 24 hours later, dantrolene 2 mg/kg every 2 hours x3 then 1 mg/kg every 8 hours, with solumedrol, baseline uncorrected 20/70): 20/30
vision of the left eye ([3]; 72 hours after treatment): starts to perceive hand movement
uncorrected visual acuity in the right eye ([3]; by the fifth day, baseline 20/70): 20/50
inferior field loss ([3]; right eye, at the fifth day (lessens from 48 hours after starting treatment)): none
corrected visual acuity in the left eye at distance ([3]; two months after discharge): counting fingers
corrected visual acuity in the left eye at near distance ([3]; two months after discharge): 20/800
excitotoxic damage in an animal seizure model (excitotoxic damage): prevents excitotoxic damage

Reference: patent US6462066B2, “Method and composition for treatment of ischemic neuronal reperfusion injury” (University of South Florida, priority 1999, dated 2002)
